Measured values taken from patent US12599136B2, “Substituted isophthalic acid diamides and their use as herbicides” (Bayer Aktiengesellschaft, priority 2020, dated 2026).

Key:
Type in all cases: in vivo
Abutilon theophrasti [1] = assay: Pre-emergence herbicidal action against ABUTH; details: visual score after 3 weeks vs untreated controls
How it was run: (§1)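 Seeds sown in sandy loam, soil-covered; compound sprayed on soil surface pre-emergence. Application: WP/EC, 600–800 l/ha, 0.2% wetting agent. Readout: visual % damage at 3 weeks.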

Alopecurus myosuroides [2] = assay: Pre-emergence herbicidal action against ALOMY; details: visual score after 3 weeks vs untreated controls
How it was run: as §1

Amaranthus retroflexus [3] = assay: Pre-emergence herbicidal action against AMARE; details: visual score after 3 weeks vs untreated controls
How it was run: as §1

Avena fatua [4] = assay: Pre-emergence herbicidal action against AVEFA; details: visual score after 3 weeks vs untreated controls
How it was run: as §1

Cyperus esculentus [5] = assay: Pre-emergence herbicidal action against CYPES; details: visual score after 3 weeks vs untreated controls
How it was run: as §1

Echinochloa crus-galli [6] = assay: Pre-emergence herbicidal action against ECHCG; details: visual score after 3 weeks vs untreated controls
How it was run: as §1

Matricaria inodora [7] = assay: Pre-emergence herbicidal action against MATIN; details: visual score after 3 weeks vs untreated controls
How it was run: as §1

Pharbitis purpurea [8] = assay: Pre-emergence herbicidal action against PHBPU; details: visual score after 3 weeks vs untreated controls
How it was run: as §1

Hordeum murinum [9] = assay: Pre-emergence herbicidal action against HORMU; details: visual score after 3 weeks vs untreated controls
How it was run: as §1

Lolium rigidum [10] = assay: Pre-emergence herbicidal action against LOLRI
How it was run: as §1

Polygonum convolvulus [11] = assay: Pre-emergence herbicidal action against POLCO
How it was run: as §1

Setaria viridis [12] = assay: Pre-emergence herbicidal action against SETVI
How it was run: as §1

Stellaria media [13] = assay: Pre-emergence herbicidal action against STEME
How it was run: as §1

Veronica persica [14] = assay: Pre-emergence herbicidal action against VERPE
How it was run: as §1

Viola tricolor [15] = assay: Pre-emergence herbicidal action against VIOTR
How it was run: as §1

Abutilon theophrasti [16] = assay: Post-emergence herbicidal action against ABUTH
How it was run: (§2)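 Percent herbicidal action is rated by eye about 3 weeks after treatment against untreated controls, where 100% means dead plants and 0% means like controls. Plants in sandy loam are sprayed on green parts at the one-leaf stage with aqueous WP or EC preparations at 600 to 800 l/ha plus 0.2% wetting agent.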

Alopecurus myosuroides [17] = assay: Post-emergence herbicidal action against ALOMY
How it was run: as §2

Amaranthus retroflexus [18] = assay: Post-emergence herbicidal action against AMARE; details: visual assessment about 3 weeks after treatment
How it was run: as §2

Avena fatua [19] = assay: Post-emergence herbicidal action against AVEFA; details: 80 g/ha, visual assessment about 3 weeks after treatment
How it was run: as §2

Cyperus esculentus [20] = assay: Post-emergence herbicidal action against CYPES; details: 80 g/ha, visual assessment about 3 weeks after treatment
How it was run: as §2

Echinochloa crus-galli [21] = assay: Post-emergence herbicidal action against ECHCG; details: visual assessment about 3 weeks after treatment
How it was run: as §2

Matricaria inodora [22] = assay: Post-emergence herbicidal action against MATIN; details: visual assessment about 3 weeks after treatment
How it was run: as §2

Pharbitis purpurea [23] = assay: Post-emergence herbicidal action against PHBPU; details: visual assessment about 3 weeks after treatment
How it was run: as §2

Hordeum murinum [24] = assay: Post-emergence herbicidal action against HORMU
How it was run: as §2

Lolium rigidum [25] = assay: Post-emergence herbicidal action against LOLRI; details: 80 g/ha
How it was run: as §2

Polygonum convolvulus [26] = assay: Post-emergence herbicidal action against POLCO; details: 80 g/ha, visual assessment about 3 weeks after treatment
How it was run: as §2

Setaria viridis [27] = assay: Post-emergence herbicidal action against SETVI; details: visual assessment about 3 weeks after treatment
How it was run: as §2

Stellaria media [28] = assay: Post-emergence herbicidal action against STEME; details: visual assessment about 3 weeks after treatment
How it was run: as §2

Veronica persica [29] = assay: Post-emergence herbicidal action against VERPE; details: 80 g/ha, visual assessment about 3 weeks after treatment
How it was run: as §2

Viola tricolor [30] = assay: Post-emergence herbicidal action against VIOTR
How it was run: as §2

SMILES: Cn1nnnc1NC(=O)c1ccc(C(F)(F)F)c(C(=O)n2cccn2)c1Cl [Example 1-153]
- Pre-emergence action against ABUTH (Abutilon theophrasti [1]; 20 g/ha): 100%
- Pre-emergence action against ABUTH (Abutilon theophrasti [1]; 80 g/ha): 100%
- Pre-emergence action against ABUTH (Abutilon theophrasti [1]; Dosage column 320 g/ha (heading prints 3200 g/ha)): 100%
- Pre-emergence action against ALOMY (Alopecurus myosuroides [2]; 80 g/ha): 80%
- Pre-emergence action against ALOMY (Alopecurus myosuroides [2]; 320 g/ha): 100%
- Pre-emergence action against AMARE (Amaranthus retroflexus [3]; 20 g/ha): 100%
- Pre-emergence action against AMARE (Amaranthus retroflexus [3]; 80 g/ha): 100%
- Pre-emergence action against AMARE (Amaranthus retroflexus [3]; 320 g/ha): 100%
- Pre-emergence action against AVEFA (Avena fatua [4]; 80 g/ha): 100%
- Pre-emergence action against AVEFA (Avena fatua [4]; 320 g/ha): 100%
- Pre-emergence action against CYPES (Cyperus esculentus [5]; 20 g/ha): 100%
- Pre-emergence action against CYPES (Cyperus esculentus [5]; 80 g/ha): 100%
- Pre-emergence action against CYPES (Cyperus esculentus [5]; 320 g/ha): 100%
- Pre-emergence action against ECHCG (Echinochloa crus-galli [6]; 20 g/ha): 100%
- Pre-emergence action against ECHCG (Echinochloa crus-galli [6]; 80 g/ha): 100%
- Pre-emergence action against ECHCG (Echinochloa crus-galli [6]; 320 g/ha): 100%
- Pre-emergence action against MATIN (Matricaria inodora [7]; 20 g/ha): 90%
- Pre-emergence action against MATIN (Matricaria inodora [7]; 80 g/ha): 100%
- Pre-emergence action against MATIN (Matricaria inodora [7]; 320 g/ha): 100%
- Pre-emergence action against PHBPU (Pharbitis purpurea [8]; 80 g/ha): 90%
- Pre-emergence action against PHBPU (Pharbitis purpurea [8]; 320 g/ha): 90%
- Pre-emergence action against HORMU (Hordeum murinum [9]; 80 g/ha): 80%
- Pre-emergence action against HORMU (Hordeum murinum [9]; 320 g/ha): 100%
- Pre-emergence action against LOLRI (Lolium rigidum [10]; 80 g/ha): 80%
- Pre-emergence action against LOLRI (Lolium rigidum [10]; 320 g/ha): 90%
- Pre-emergence action against POLCO (Polygonum convolvulus [11]; 80 g/ha): 90%
- Pre-emergence action against POLCO (Polygonum convolvulus [11]; 320 g/ha): 100%
- Pre-emergence action against SETVI (Setaria viridis [12]; 20 g/ha): 100%
- Pre-emergence action against SETVI (Setaria viridis [12]; 80 g/ha): 100%
- Pre-emergence action against SETVI (Setaria viridis [12]; 320 g/ha): 100%
- Pre-emergence action against STEME (Stellaria media [13]; 20 g/ha): 90%
- Pre-emergence action against STEME (Stellaria media [13]; 80 g/ha): 90%
- Pre-emergence action against STEME (Stellaria media [13]; 320 g/ha): 100%
- Pre-emergence action against VERPE (Veronica persica [14]; 80 g/ha): 90%
- Pre-emergence action against VERPE (Veronica persica [14]; 320 g/ha): 100%
- Pre-emergence action against VIOTR (Viola tricolor [15]; 80 g/ha): 100%
- Pre-emergence action against VIOTR (Viola tricolor [15]; 320 g/ha): 100%
- Post-emergence action against ABUTH (Abutilon theophrasti [16]; 5 g/ha): 90%
- Post-emergence action against ABUTH (Abutilon theophrasti [16]; 20 g/ha): 90%
- Post-emergence action against ABUTH (Abutilon theophrasti [16]; 80 g/ha): 90%
- Post-emergence action against ALOMY (Alopecurus myosuroides [17]; 5 g/ha): 80%
- Post-emergence action against ALOMY (Alopecurus myosuroides [17]; 20 g/ha): 90%
- Post-emergence action against ALOMY (Alopecurus myosuroides [17]; 80 g/ha): 90%
- Post-emergence action against AMARE in % (Amaranthus retroflexus [18]; 5 g/ha): 100%
- Post-emergence action against AMARE in % (Amaranthus retroflexus [18]; 20 g/ha): 100%
- Post-emergence action against AMARE in % (Amaranthus retroflexus [18]; 80 g/ha): 100%
- Post-emergence action against AVEFA in % (Avena fatua [19]): 100%
- Post-emergence action against CYPES in % (Cyperus esculentus [20]): 90%
- Post-emergence action against ECHCG in % (Echinochloa crus-galli [21]; 5 g/ha): 90%
- Post-emergence action against ECHCG in % (Echinochloa crus-galli [21]; 20 g/ha): 100%
- Post-emergence action against ECHCG in % (Echinochloa crus-galli [21]; 80 g/ha): 100%
- Post-emergence action against MATIN in % (Matricaria inodora [22]; 5 g/ha): 90%
- Post-emergence action against MATIN in % (Matricaria inodora [22]; 20 g/ha): 90%
- Post-emergence action against MATIN in % (Matricaria inodora [22]; 80 g/ha): 100%
- Post-emergence action against PHBPU in % (Pharbitis purpurea [23]; 5 g/ha): 80%
- Post-emergence action against PHBPU in % (Pharbitis purpurea [23]; 20 g/ha): 90%
- Post-emergence action against PHBPU in % (Pharbitis purpurea [23]; 80 g/ha): 90%
- Post-emergence action against HORMU in % (Hordeum murinum [24]; 20 g/ha): 80%
- Post-emergence action against HORMU in % (Hordeum murinum [24]; 80 g/ha): 90%
- Post-emergence action against LOLRI in % (Lolium rigidum [25]): 90%
- Post-emergence action against POLCO in % (Polygonum convolvulus [26]): 90%
- Post-emergence action against SETVI in % (Setaria viridis [27]; 20 g/ha): 100%
- Post-emergence action against SETVI in % (Setaria viridis [27]; 80 g/ha): 100%
- Post-emergence action against STEME in % (Stellaria media [28]; 5 g/ha): 100%
- Post-emergence action against STEME in % (Stellaria media [28]; 20 g/ha): 100%
- Post-emergence action against STEME in % (Stellaria media [28]; 80 g/ha): 100%
- Post-emergence action against VERPE in % (Veronica persica [29]): 80%
- Post-emergence action against VIOTR in % (Viola tricolor [30]; 5 g/ha): 80%
- Post-emergence action against VIOTR in % (Viola tricolor [30]; 20 g/ha): 90%
- Post-emergence action against VIOTR in % (Viola tricolor [30]; 80 g/ha): 90%
